For one test, the target named is Nitric oxide synthase 1 (Rattus norvegicus, UniProt P29476). The test can be described thus: Inhibition of rat recombinant nNOS expressed in Escherichia coli by UV-vis spectrometric analysis.
Another test addresses T1, Nitric oxide synthase 3 (Bos taurus, UniProt P29473).
T1 sequence (P29473 whole entry): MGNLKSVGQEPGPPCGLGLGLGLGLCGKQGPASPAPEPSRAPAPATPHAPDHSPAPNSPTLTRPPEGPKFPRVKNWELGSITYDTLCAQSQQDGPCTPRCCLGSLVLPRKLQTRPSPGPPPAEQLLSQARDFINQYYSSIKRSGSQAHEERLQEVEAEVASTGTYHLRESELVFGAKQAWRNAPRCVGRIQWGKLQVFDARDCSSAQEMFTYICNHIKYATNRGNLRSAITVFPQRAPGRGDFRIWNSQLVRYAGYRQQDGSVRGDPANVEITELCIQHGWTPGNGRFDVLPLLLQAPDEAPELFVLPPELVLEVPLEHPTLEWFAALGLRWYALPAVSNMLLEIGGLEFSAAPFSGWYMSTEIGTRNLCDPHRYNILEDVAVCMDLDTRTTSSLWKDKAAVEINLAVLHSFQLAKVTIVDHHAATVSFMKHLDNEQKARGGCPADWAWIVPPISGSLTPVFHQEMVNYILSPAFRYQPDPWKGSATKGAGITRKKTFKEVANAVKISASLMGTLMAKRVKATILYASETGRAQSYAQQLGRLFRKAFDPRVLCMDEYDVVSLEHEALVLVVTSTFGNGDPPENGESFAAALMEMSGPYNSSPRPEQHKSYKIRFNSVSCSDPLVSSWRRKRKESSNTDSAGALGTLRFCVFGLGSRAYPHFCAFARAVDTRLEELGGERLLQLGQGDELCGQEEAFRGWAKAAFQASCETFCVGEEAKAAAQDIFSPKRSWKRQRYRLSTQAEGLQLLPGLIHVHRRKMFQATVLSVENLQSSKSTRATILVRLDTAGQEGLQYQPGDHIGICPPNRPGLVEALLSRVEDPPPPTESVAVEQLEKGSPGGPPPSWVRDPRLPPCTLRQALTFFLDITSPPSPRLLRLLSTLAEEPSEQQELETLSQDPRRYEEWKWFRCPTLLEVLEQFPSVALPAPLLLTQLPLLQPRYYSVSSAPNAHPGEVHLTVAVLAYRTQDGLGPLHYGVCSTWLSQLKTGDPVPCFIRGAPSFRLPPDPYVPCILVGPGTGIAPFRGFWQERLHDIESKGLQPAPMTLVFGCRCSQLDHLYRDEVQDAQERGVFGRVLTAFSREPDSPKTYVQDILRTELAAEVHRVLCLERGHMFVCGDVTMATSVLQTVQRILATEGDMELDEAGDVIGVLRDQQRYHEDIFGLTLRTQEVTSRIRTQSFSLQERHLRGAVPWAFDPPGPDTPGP
The test can be described thus: Inhibition of bovine recombinant eNOS expressed in Escherichia coli by UV-vis spectrometric analysis.

Test [1] concerns the target T2, Nitric oxide synthase, inducible (Mus musculus, UniProt P29477).
T2 sequence (P29477 whole entry): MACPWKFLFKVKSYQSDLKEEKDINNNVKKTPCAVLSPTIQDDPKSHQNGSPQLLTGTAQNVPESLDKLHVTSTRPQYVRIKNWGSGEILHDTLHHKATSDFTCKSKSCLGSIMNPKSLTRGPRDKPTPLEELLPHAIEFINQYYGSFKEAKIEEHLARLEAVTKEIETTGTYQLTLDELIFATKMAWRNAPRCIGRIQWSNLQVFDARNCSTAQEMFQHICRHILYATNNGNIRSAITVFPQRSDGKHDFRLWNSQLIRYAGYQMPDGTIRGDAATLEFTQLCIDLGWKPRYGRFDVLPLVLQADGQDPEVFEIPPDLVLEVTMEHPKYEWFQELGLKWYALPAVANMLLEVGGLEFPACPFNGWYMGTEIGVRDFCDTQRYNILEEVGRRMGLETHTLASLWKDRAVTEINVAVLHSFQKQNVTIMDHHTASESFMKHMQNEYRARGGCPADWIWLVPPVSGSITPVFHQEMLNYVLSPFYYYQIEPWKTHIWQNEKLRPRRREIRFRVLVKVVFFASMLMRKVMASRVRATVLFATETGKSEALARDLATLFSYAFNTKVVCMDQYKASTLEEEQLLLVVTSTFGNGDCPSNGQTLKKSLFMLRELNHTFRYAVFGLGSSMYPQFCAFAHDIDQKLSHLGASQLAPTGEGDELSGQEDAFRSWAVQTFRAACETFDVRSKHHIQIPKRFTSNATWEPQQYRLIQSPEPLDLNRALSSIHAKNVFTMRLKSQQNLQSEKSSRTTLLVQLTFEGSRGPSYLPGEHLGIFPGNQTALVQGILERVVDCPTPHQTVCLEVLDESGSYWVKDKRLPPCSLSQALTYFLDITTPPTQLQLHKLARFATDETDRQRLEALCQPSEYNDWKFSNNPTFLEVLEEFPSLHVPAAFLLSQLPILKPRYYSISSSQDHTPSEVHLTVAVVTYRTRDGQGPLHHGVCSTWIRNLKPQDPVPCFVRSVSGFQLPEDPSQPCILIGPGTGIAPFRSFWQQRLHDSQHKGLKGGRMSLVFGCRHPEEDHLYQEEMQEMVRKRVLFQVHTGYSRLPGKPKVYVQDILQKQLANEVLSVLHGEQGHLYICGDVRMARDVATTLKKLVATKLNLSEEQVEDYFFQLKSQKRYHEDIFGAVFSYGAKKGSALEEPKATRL
The test can be described thus: Inhibition of mouse macrophage recombinant iNOS expressed in Escherichia coli by UV-vis spectrometric analysis.

Test [2] in a line: Selectivity ratio of Ki for bovine recombinant eNOS to Ki for rat recombinant nNOS.
Test [3] can be described thus: Selectivity ratio of Ki for murine macrophage recombinant iNOS to Ki for rat recombinant nNOS.

Where only a bound is given, the exact number is not on record here.

Chain of Nitric oxide synthase 1 (P29476 whole entry): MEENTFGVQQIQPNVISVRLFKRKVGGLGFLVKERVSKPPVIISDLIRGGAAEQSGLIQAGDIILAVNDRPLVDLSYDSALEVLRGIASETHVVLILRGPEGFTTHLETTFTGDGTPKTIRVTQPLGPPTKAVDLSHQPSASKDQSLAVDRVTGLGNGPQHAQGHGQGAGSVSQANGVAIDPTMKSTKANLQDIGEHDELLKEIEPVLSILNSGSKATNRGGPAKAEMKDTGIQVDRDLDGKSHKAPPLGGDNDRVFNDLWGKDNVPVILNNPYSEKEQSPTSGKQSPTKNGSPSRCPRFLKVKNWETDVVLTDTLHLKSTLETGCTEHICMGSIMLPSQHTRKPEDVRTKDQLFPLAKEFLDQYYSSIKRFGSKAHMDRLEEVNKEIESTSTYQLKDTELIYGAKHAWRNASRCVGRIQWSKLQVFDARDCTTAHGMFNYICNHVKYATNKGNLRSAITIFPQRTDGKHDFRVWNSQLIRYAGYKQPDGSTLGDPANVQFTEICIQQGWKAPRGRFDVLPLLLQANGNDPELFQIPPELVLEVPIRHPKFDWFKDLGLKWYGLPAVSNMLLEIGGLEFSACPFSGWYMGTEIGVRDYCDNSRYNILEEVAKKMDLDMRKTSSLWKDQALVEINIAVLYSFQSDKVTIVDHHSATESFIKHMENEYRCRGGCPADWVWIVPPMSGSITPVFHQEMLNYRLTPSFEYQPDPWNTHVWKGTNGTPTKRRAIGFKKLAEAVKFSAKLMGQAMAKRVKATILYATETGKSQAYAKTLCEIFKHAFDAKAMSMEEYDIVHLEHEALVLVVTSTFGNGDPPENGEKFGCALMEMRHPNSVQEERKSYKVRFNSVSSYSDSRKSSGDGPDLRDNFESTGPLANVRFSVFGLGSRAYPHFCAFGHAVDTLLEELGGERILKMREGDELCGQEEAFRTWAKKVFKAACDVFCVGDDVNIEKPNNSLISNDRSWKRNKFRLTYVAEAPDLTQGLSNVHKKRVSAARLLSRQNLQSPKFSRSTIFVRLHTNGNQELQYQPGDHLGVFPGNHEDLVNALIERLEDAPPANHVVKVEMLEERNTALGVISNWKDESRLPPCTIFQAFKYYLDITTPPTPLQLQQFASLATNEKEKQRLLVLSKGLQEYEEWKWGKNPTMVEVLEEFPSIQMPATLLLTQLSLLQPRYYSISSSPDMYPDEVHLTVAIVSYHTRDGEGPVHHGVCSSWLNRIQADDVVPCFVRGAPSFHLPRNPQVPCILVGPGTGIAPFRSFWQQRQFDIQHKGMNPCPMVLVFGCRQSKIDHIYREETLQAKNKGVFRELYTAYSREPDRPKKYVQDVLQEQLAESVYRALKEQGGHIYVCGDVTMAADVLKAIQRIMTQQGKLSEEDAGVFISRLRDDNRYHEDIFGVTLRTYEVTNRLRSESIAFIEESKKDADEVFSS

`Cc1cc(CCc2cccc(CCc3cc(C)nc(N)c3)c2)cc(N)n1`: at Nitric oxide synthase 1, the Ki (as a rule, the equilibrium dissociation constant of an inhibitor or competing ligand from its target) is over 1 µM.
`Cc1cc(N)nc(CCc2cc(N)cc(CCc3cc(C)cc(N)n3)c2)c1`: the Ki was found to be 0.085 µM at Nitric oxide synthase 1, 4.95 µM at Nitric oxide synthase 3 and 3.4 µM in test [1]. Further, the results for the Ratio Ki in test [2] and in test [3] were 58 and 40, respectively.
For `Cc1cc(N)nc(CCc2ccc3ccc(CCc4cc(C)nc(N)c4)cc3c2)c1`, on Nitric oxide synthase 1, the Ki is over 1 µM.
As to `Cc1cc(N)nc(CCc2ccc(CCc3cc(C)cc(N)n3)cc2)c1`, the Ratio Ki was determined as 24.6 in test [2] and 24.8 in test [3].
For `Cc1cc(N)nc(CCc2ccc3cc(CCc4cc(C)cc(N)n4)ccc3c2)c1`, in that order: 7.22 and 9.42.
As for `Cc1cc(C)nc(NCc2ccc3cc(CNc4cc(C)cc(C)n4)ccc3c2)c1`, the Ki at Nitric oxide synthase 1 was over 1 µM.
Take `Cc1cc(N)nc(CCc2cncc(CCc3cc(C)nc(N)c3)c2)c1`: the values for the Ratio Ki in test [2] and in test [3] were 156 and 19, respectively.
For `Cc1cc(N)nc(CCc2ccc3ccc(CCc4cc(C)cc(N)n4)cc3c2)c1`, in that order: 14.9 and 20.1.
In the case of `Cc1cc(N)nc(CCc2cccc(CCc3cc(C)nc(N)c3)n2)c1`, the Ki on Nitric oxide synthase 1 was determined as 0.195 µM; on Nitric oxide synthase 3, 20 µM; in test [1], 12.6 µM.
On to `Cc1cc(N)nc(CCc2cccc(CCc3cc(C)nc(N)c3)c2)c1`, for which the Ratio Ki came out at 111 in test [2] and 71.8 in test [3].
For `Cc1cc(N)nc(CCc2cccc(CCc3cc(C)cc(N)n3)n2)c1`, in that order: 95 and 48.

Source of the values: ChEMBL document CHEMBL1764947, “Symmetric double-headed aminopyridines, a novel strategy for potent and membrane-permeable inhibitors of neuronal nitric oxide synthase” (J Med Chem, 2011).
